Assay results published in patent publication US20090030024A1, “THIAZOLES AS FUNGICIDES” (priority 2005, published 2009).
Marks after values point to notes of the source that are not given here.

assay: logP determination by retention times (calibration with alkan-2-ones); details: not given

Question: Which chromatographic logP does the source give for `CC(=O)c1cccc(Nc2nccc(-c3sc(C)nc3C)n2)c1` [Example 2, 1-(3-{[4-(2,4-dimethyl-1,3-thiazol-5-yl)pyrimidin-2-yl]amino}phenyl)ethanone] here?
Answer: 2.14

Question: With `CC(=O)c1cccc(Nc2nccc(-c3sc(N)nc3C)n2)c1` [Example 4, 1-(3-{[4-(2-amino-4-methyl-1,3-thiazol-5-yl)pyrimidin-2-yl]amino}phenyl)ethanone] as the molecule, how does the chromatographic logP read?
Answer: 1.47

Question: With `CC(=O)c1cccc(Nc2nccc(-c3sc(C4CCCCC4)nc3C)n2)c1` [Example 6, 1-(3-{[4-(2-cyclohexyl-4-methyl-1,3-thiazol-5-yl)pyrimidin-2-yl]amino}phenyl)ethanone] as the molecule, how does the chromatographic logP read?
Answer: 4.11

Question: For `CC(=O)c1cccc(Nc2nccc(-c3sc(C(C)C)nc3C)n2)c1` [Example 10, 1-(3-{[4-(2-isopropyl-4-methyl-1,3-thiazol-5-yl)pyrimidin-2-yl]amino}phenyl)ethanone], which chromatographic logP is on record?
Answer: 3.1

Question: Which chromatographic logP does the source give for `CC(=O)c1cccc(Nc2nccc(-c3cnc(C)s3)n2)c1` [Example 11, 1-(3-{[4-(2-methyl-1,3-thiazol-5-yl)pyrimidin-2-yl]amino}phenyl)ethanone] here?
Answer: 2.57

Question: Which chromatographic logP does the source give for `COCc1nc(C)c(-c2ccnc(Nc3cccc(C(C)=O)c3)n2)s1` [Example 24, 1-[3-({4-[2-(methoxymethyl)-4-methyl-1,3-thiazol-5-yl]pyrimidin-2-yl}amino)phenyl]ethanone] here?
Answer: 2.38

Question: Which chromatographic logP does the source give for `CC(=O)c1cccc(Nc2nccc(-c3sc(C)nc3C(F)(F)F)n2)c1` [Example 26, 1-[3-({4-[2-methyl-4-(trifluoromethyl)-1,3-thiazol-5-yl]pyrimidin-2-yl}amino)phenyl]ethanone] here?
Answer: 3.02

Question: For `CSc1nc(C)c(-c2ccnc(Nc3cccc(C(C)=O)c3)n2)s1` [Example 28, 1-[3-({4-[4-methyl-2-(methylthio)-1,3-thiazol-5-yl]pyrimidin-2-yl}amino)phenyl]ethanone], which chromatographic logP is on record?
Answer: 2.99

Question: For `CC(=O)c1cccc(Nc2nccc(-c3sc(NCC4CCCO4)nc3C)n2)c1` (stereo not shown) [Example 39, 1-{3-[(4-{4-methyl-2-[(tetrahydrofuran-2-ylmethyl)amino]-1,3-thiazol-5-yl}pyrimidin-2-yl)amino]phenyl}ethanone], which chromatographic logP is on record?
Answer: 1.82

Question: With `CSc1nc(C)c(-c2ccnc(Nc3ccc(N(C)C)c(Cl)c3)n2)s1` [Example 61, 2-chloro-N1,N1-dimethyl-N4-{4-[4-methyl-2-(methylthio)-1,3-thiazol-5-yl]pyrimidin-2-yl}benzene-1,4-diamine] as the molecule, how does the chromatographic logP read?
Answer: 2.74

Question: Which chromatographic logP does the source give for `Cc1nc(C2CC2)sc1-c1ccnc(Nc2ccc(N(C)C)c(Cl)c2)n1` [Example 63, 2-chloro-N4-[4-(2-cyclopropyl-4-methyl-1,3-thiazol-5-yl)pyrimidin-2-yl]-N1,N1-dimethylbenzene-1,4-diamine] here?
Answer: 2.59

Question: With `Cc1nc(C(C)C)sc1-c1ccnc(Nc2ccc(N(C)C)c(Cl)c2)n1` [Example 64, 2-chloro-N4-[4-(2-isopropyl-4-methyl-1,3-thiazol-5-yl)pyrimidin-2-yl]-N1,N1-dimethylbenzene-1,4-diamine] as the molecule, how does the chromatographic logP read?
Answer: 2.72

Question: For `COCc1nc(C)c(-c2ccnc(Nc3ccc(N(C)C)c(Cl)c3)n2)s1` [Example 65, 2-chloro-N4-{4-[2-(methoxymethyl)-4-methyl-1,3-thiazol-5-yl]pyrimidin-2-yl}-N1,N1-dimethylbenzene-1,4-diamine], which chromatographic logP is on record?
Answer: 2.04

Question: Which chromatographic logP does the source give for `COCCOC(=O)Nc1ccc(Nc2nccc(-c3sc(C4CC4)nc3C)n2)cc1` [Example 71, 2-methoxyethyl-(4-{[4-(2-cyclopropyl-4-methyl-1,3-thiazol-5-yl)pyrimidin-2-yl]amino}phenyl)carbamate] here?
Answer: 2.51

Question: With `COCCOC(=O)Nc1ccc(Nc2nccc(-c3sc(C(C)C)nc3C)n2)cc1` [Example 74, 2-methoxyethyl-(4-{[4-(2-isopropyl-4-methyl-1,3-thiazol-5-yl)pyrimidin-2-yl]amino}phenyl)carbamate] as the molecule, how does the chromatographic logP read?
Answer: 2.67

Question: With `Cc1nc2c(s1)-c1nc(Nc3cccc([N+](=O)[O-])c3)ncc1CC2` [Example 95, 2-Methyl-N-(3-nitrophenyl)-4,5-dihydro[1,3]thiazolo[4,5-h]quinazoline-8-amine] as the molecule, how does the chromatographic logP read?
Answer: 2.79

Question: With `COCc1nc(C)c(-c2ccnc(Nc3cccc(O)c3)n2)s1` [Example 101, 3-({4-[2-(methoxymethyl)-4-methyl-1,3-thiazol-5-yl]pyrimidin-2-yl}amino)phenol] as the molecule, how does the chromatographic logP read?
Answer: 1.97

Question: With `Cc1nc(C(F)(F)F)c(-c2ccnc(Nc3cccc(O)c3)n2)s1` [Example 103, 3-({4-[2-methyl-4-(trifluoromethyl)-1,3-thiazol-5-yl]pyrimidin-2-yl}amino)phenol] as the molecule, how does the chromatographic logP read?
Answer: 2.52

Question: For `COCC(C)Nc1nc(C)c(-c2ccnc(Nc3cccc(O)c3)n2)s1` (stereo not shown) [Example 129, 3-[(4-{2-[(2-methoxy-1-methylethyl)amino]-4-methyl-1,3-thiazol-5-yl}pyrimidin-2-yl)amino]phenol], which chromatographic logP is on record?
Answer: 1.53

Question: For `Cc1nc(C)c(-c2ccnc(Nc3cccc(O)c3)n2)s1` [Example 141, 3-{[4-(2,4-dimethyl-1,3-thiazol-5-yl)pyrimidin-2-yl]amino}phenol], which chromatographic logP is on record?
Answer: 1.84

Question: Which chromatographic logP does the source give for `Cc1nc(C2CCCCC2)sc1-c1ccnc(Nc2cccc(C(=O)O)c2)n1` [Example 145, 3-{[4-(2-cyclohexyl-4-methyl-1,3-thiazol-5-yl)pyrimidin-2-yl]amino}benzoic acid] here?
Answer: 3.27

Question: With `Cc1nc(C2CCCCC2)sc1-c1ccnc(Nc2cccc(O)c2)n1` [Example 146, 3-{[4-(2-cyclohexyl-4-methyl-1,3-thiazol-5-yl)pyrimidin-2-yl]amino}phenol] as the molecule, how does the chromatographic logP read?
Answer: 3.33

Question: With `Cc1nc(C2CC2)sc1-c1ccnc(Nc2cccc(C(=O)O)c2)n1` [Example 147, 3-{[4-(2-cyclopropyl-4-methyl-1,3-thiazol-5-yl)pyrimidin-2-yl]amino}benzoic acid] as the molecule, how does the chromatographic logP read?
Answer: 2.27

Question: With `Cc1nc(C2CC2)sc1-c1ccnc(Nc2cccc(O)c2)n1` [Example 148, 3-{[4-(2-cyclopropyl-4-methyl-1,3-thiazol-5-yl)pyrimidin-2-yl]amino}phenol] as the molecule, how does the chromatographic logP read?
Answer: 2.24

same assay, conditions: HPLC, reversed-phase C 18, EEC Directive 79/831 Annex V.A8; method *: 40° C., 0.1% aqueous formic acid and acetonitrile, linear gradient 10% to 95% acetonitrile

Question: Which logP does the source give for `CC(=O)c1cccc(Nc2nccc(-c3sc(N(C)C)nc3C(F)(F)F)n2)c1` [Example 23, 1-[3-({4-[2-(dimethylamine)-4-(trifluoromethyl)-1,3-thiazol-5-yl]pyrimidin-2-yl}amino)phenyl]ethanone] here?
Answer: 1.91*

Question: Which logP does the source give for `CNc1nc(C)c(-c2ccnc(Nc3cccc(C(C)=O)c3)n2)s1` [Example 27, 1-[3-({4-[4-methyl-2-(methylamine)-1,3-thiazol-5-yl]pyrimidin-2-yl}amino)phenyl]ethanone] here?
Answer: 1.62*

Question: With `Cc1nc(NC(C)(C)C)sc1-c1ccnc(Nc2cccc(O)c2)n1` [Example 102, 3-({4-[2-(tert-butylamine)-4-methyl-1,3-thiazol-5-yl]pyrimidin-2-yl}amino)phenol] as the molecule, how does the logP read?
Answer: 1.82*

Question: For `Cc1nc2c(s1)-c1nc(Nc3cccc(O)c3)ncc1CC2` [Example 126, 3-[(2-methyl-4,5-dihydro[1,3]thiazole[4,5-h]quinazolin-8-yl)amino]phenol], which logP is on record?
Answer: 1.77*

same assay, conditions: logP(HCOOH), HCOOH

Question: Which chromatographic logP does the source give for `Cc1nc(C)c(-c2nc(Cl)ncc2Cl)s1` [2,5-Dichloro-4-(2,4-dimethyl-1,3-thiazol-5-yl)pyrimidine] here?
Answer: 2.47

Question: Which chromatographic logP does the source give for `Cc1nc2c(s1)C(=O)CCC2` [2-Methyl-7-oxo-4,5,6,7-tetrahydrobenzothiazole] here?
Answer: 1.08

Question: With `Cc1nc2c(s1)-c1nc(Nc3cccc([N+](=O)[O-])c3)ncc1CC2` [Example 95, 2-Methyl-N-(3-nitrophenyl)-4,5-dihydro[1,3]thiazolo[4,5-h]quinazoline-8-amine] as the molecule, how does the chromatographic logP read?
Answer: 2.79
